Experimental findings from ChEMBL document CHEMBL1201862, “PubChem BioAssay data set” (2004) are described below.

Active and inactive are the calls of the source. A value given as a limit tells only on which side of the number the result lay.

As usually defined, the IC50 is the concentration at which inhibition is half-maximal. As usually defined, the EC50 is the concentration that produces a half-maximal response. For orientation: AC50 means the concentration at which the activity in the assay is half-maximal.

The target in assay [1] is Melanin-concentrating hormone receptor 1 (Homo sapiens, UniProt Q99705). As to the kind of experiment: Late-stage fluorescence-based counterscreen for antagonists of the G-protein coupled receptor 7 (GPR7): cell-based dose response assay to identify antagonists of the melanin-concentrating hormone receptor 1 (MCHR1) Set 5. It counts as functional. (In general: A counterscreen serves to expose hits that act by an unwanted route or on another target.)

Assay [2] has as its target Neuropeptides B/W receptor type 1 (Homo sapiens, UniProt P48145). Put plainly: human NPBW1 receptor blockade, IC50 – cell-based, fluorescence, dose response, set 5, late-stage follow-up (AID 588566). It is filed as functional.
Assay [3] in a line: cAMP pathway inhibition in counterscreen cell line – TR-FRET cAMP detection, counter-screen for MC4R biased antagonist project, dose response (AID 602305).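 Note: U2OS cells stimulated with forskolin near its EC80 as the cAMP inducer; potency is for inhibition of forskolin-stimulated cAMP signaling.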 It is filed as functional, cell-based.
Assay [4] concerns the target T1, Sphingosine 1-phosphate receptor 4 (Homo sapiens, UniProt O95977).
T1 sequence (O95977 whole entry): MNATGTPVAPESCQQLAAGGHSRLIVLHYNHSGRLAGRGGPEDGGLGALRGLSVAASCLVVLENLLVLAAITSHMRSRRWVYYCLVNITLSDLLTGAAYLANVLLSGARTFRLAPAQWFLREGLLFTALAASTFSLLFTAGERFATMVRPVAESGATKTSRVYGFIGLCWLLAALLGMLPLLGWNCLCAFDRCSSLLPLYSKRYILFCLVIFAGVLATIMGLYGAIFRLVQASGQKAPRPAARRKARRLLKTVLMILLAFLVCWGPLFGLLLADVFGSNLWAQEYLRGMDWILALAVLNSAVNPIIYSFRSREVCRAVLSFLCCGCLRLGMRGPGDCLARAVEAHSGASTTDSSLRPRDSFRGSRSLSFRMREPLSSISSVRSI
Put plainly: Late stage fluorescence dose response cell-based screening assay for antagonists of the Sphingosine 1-Phosphate Receptor 4 (S1P4). [Related pubchem assays: 1524 (Confirmation screen (S1P4 antagonists).), 1510 (Primary screen (S1P4 antagonists).), 1853 (Summary AID (S1P4 antagonists).), 1692 (Dose response screen (S1P4 antagonists).)]. It is filed as functional.

Assay [5] can be described thus: viability of PTEN-deleted HCT116 cells – cell-based, HCT116 PTEN knockout, dose response (AID 1047).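 Note: HCT116 colon tumor cells with PTEN knocked out; cells exposed to compound for 60 hours before readout; potency for loss of cell viability measured by luminescence.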 It is filed as functional.
Assay [6] concerns the target T2, Replicative DNA helicase DnaB (Mycobacterium tuberculosis, UniProt P9WMR3).
T2 sequence (P9WMR3 whole entry): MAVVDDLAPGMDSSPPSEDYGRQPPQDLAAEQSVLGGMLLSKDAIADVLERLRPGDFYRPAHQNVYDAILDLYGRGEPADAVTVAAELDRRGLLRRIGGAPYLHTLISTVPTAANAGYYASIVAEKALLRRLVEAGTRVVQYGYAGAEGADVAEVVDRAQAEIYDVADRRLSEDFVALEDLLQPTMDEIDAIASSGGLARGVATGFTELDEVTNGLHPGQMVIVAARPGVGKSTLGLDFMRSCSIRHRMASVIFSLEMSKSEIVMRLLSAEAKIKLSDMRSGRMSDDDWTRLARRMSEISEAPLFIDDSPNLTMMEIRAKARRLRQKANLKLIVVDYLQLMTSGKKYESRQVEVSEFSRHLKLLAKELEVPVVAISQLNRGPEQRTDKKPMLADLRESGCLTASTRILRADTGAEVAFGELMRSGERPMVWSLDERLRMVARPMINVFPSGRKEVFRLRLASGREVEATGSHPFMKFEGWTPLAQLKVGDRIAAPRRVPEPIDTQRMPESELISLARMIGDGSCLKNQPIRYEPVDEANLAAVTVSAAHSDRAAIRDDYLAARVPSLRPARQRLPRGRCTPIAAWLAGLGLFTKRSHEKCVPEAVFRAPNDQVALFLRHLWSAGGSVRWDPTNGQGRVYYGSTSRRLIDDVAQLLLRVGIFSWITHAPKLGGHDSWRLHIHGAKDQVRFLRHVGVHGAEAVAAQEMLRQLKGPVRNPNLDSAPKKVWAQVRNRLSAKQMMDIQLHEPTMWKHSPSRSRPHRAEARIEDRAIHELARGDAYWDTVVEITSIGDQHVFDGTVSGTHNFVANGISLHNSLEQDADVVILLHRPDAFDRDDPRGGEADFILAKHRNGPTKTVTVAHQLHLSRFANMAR
Put plainly: DnaB intein splicing inhibitors, dose response, biochemical, cell-free fluorescence (AID 449749). It counts as functional.

A short description of assay [7]: viability of HCT116 lacking mutant beta-catenin – cell-based, human colon tumor, dose response (AID 1045).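 Note: HCT116 colon tumor cells with beta catenin knocked out; cells exposed to compound for 60 hours.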 It counts as functional.
Assay [8] has as its system Streptococcus. As to the kind of experiment: GAS UMAA2166 growth inhibition – luminescence, BacTiterGlo, counter-screen for streptokinase expression inhibitor project, dose response (AID 1915).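 Note: potency for reduction of bacterial viability or growth.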 It counts as functional, organism-based.
Assay [9] in a line: Luminescence Cell-Based Dose Retest to Confirm Inhibitors of Cancer Stem Cells. [Related pubchem assays (depositor defined):AID2717, AID2721]. It counts as functional. Particulars: Homo sapiens.
Assay [10] addresses T1, Sphingosine 1-phosphate receptor 4. Put plainly: Fluorescence dose response cell-based high throughput screening assay for antagonists of the Sphingosine 1-Phosphate Receptor 4 (S1P4). [Related pubchem assays: 1524 (Confirmation in triplicates.), 1510 (Primary screen.)]. It is filed as functional.
Assay [11] relates to Streptococcus sp. 'group A'. As to the kind of experiment: Streptococcus pyogenes SK(-)GAS viability under kanamycin – luminescence, BacTiterGlo, confirmation, counter-screen for streptokinase expression inhibitor project, dose response (AID 1900). It is filed as functional, organism-based.
In assay [12] the target is Sphingosine 1-phosphate receptor 1 (Homo sapiens, UniProt P21453). It counts as functional.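 Note: Tango beta-arrestin reporter U2OS cells stimulated with S1P near its EC80; inhibitor potency meaning antagonism of receptor activation by the natural agonist.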
The target in assay [13] is Melanocortin receptor 4 (Homo sapiens, UniProt P32245). As to the kind of experiment: inhibitors of MC4R cAMP signaling – cell-based, TR-FRET, biased antagonists, dose response (AID 602298).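 Note: antagonist potency against agonist-stimulated cAMP production.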 It is filed as functional.
In assay [14] the target is T3, Protein RecA (Mycobacterium tuberculosis, UniProt P9WHJ3).
T3 sequence (P9WHJ3 whole entry): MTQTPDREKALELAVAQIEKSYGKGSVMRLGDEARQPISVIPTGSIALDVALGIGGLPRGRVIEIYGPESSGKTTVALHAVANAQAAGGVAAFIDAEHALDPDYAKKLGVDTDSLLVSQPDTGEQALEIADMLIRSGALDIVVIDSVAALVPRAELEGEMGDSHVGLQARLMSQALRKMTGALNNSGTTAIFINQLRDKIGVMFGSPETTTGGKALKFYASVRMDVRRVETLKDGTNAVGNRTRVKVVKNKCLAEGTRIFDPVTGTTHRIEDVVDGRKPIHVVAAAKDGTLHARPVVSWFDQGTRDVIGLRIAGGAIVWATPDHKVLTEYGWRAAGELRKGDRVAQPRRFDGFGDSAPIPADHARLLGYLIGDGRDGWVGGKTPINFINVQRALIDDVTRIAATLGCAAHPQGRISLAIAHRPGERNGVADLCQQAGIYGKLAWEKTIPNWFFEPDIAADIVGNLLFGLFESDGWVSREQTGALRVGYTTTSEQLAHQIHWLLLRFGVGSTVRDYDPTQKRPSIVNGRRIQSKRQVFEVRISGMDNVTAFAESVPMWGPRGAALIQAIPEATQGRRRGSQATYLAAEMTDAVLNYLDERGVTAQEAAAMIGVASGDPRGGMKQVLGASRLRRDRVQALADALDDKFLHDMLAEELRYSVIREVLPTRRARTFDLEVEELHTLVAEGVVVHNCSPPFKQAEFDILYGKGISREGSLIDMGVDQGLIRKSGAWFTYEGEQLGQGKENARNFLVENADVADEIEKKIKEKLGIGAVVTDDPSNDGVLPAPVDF
Put plainly: Fluorescence Cell-Free Homogeneous Dose Retest to Identify Inhibitors of RecA-Intein Splicing Activity. [Related pubchem assays (depositor defined):AID2097, AID2223, AID489010, AID492950]. It is filed as functional.

The target in assay [15] is T4, Streptokinase A (Streptococcus pyogenes serotype M1, UniProt P10520).
T4 sequence (P10520 whole entry): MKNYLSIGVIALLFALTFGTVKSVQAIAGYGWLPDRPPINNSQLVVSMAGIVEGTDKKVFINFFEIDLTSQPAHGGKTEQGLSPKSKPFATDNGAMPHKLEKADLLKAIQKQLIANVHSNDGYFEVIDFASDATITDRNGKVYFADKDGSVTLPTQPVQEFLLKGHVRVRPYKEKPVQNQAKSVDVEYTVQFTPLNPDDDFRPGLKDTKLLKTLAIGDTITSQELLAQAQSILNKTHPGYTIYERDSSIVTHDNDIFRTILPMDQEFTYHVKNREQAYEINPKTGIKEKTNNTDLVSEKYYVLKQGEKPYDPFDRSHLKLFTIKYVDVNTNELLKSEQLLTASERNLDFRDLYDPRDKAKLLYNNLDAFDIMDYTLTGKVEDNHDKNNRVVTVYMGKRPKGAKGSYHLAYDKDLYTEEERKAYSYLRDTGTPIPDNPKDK
As to the kind of experiment: viability-normalized secreted streptokinase activity reduction – plasminogen activation absorbance, OD405, dose response (AID 1914).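 Note: secreted streptokinase activity via plasminogen activation per viability signal from cell pellet.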 It is filed as functional, Streptococcus pyogenes M1 GAS.

For assay [16], the target named is T5, High affinity choline transporter 1 (Homo sapiens, UniProt Q9GZV3).
T5 sequence (Q9GZV3 whole entry): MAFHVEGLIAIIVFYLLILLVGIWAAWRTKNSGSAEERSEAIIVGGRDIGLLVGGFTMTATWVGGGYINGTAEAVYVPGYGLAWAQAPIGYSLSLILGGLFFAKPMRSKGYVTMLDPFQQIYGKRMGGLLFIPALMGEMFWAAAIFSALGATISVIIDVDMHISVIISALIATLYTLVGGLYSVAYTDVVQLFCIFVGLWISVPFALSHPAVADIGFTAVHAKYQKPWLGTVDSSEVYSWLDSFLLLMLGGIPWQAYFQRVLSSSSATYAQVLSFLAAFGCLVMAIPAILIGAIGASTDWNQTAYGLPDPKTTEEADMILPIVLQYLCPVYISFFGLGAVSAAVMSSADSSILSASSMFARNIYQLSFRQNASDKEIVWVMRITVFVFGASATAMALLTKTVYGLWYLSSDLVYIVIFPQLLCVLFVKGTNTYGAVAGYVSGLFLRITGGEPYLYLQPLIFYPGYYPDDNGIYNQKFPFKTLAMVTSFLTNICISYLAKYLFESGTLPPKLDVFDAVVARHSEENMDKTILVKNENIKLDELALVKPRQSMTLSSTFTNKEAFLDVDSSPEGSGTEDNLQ
Put plainly: human choline transporter blockers, potency – cell-based, 5-point CRC, membrane potential dye, dose response (AID 504840). It is filed as functional.

The target of assay [17] is T5, High affinity choline transporter 1. Put plainly: human choline transporter blockers, potency – cell-based, 10-point CRC, membrane potential dye, dose response (AID 588401).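 Note: membrane potential dye fluorescence of choline-evoked depolarization via CHT.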 It counts as functional.

Sequence of Melanocortin receptor 4 (P32245 whole entry): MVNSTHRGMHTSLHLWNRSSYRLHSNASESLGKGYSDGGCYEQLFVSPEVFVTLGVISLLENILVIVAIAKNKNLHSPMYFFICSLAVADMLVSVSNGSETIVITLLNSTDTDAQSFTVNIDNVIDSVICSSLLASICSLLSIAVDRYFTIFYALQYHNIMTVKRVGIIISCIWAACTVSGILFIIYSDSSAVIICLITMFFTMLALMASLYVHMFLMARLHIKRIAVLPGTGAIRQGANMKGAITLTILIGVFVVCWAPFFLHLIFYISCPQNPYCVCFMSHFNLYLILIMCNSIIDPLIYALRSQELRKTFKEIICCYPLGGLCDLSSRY
Sequence of Melanin-concentrating hormone receptor 1 (Q99705 whole entry): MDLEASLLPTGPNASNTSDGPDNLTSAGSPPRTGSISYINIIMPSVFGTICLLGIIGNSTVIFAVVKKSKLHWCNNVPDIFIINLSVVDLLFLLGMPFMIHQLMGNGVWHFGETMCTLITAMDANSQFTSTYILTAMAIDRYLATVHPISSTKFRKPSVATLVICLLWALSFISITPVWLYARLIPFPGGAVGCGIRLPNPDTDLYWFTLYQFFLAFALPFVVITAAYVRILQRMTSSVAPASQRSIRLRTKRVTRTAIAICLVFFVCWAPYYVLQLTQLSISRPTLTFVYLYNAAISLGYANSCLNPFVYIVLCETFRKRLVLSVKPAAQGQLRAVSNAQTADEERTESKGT
Sequence of Neuropeptides B/W receptor type 1 (P48145 whole entry): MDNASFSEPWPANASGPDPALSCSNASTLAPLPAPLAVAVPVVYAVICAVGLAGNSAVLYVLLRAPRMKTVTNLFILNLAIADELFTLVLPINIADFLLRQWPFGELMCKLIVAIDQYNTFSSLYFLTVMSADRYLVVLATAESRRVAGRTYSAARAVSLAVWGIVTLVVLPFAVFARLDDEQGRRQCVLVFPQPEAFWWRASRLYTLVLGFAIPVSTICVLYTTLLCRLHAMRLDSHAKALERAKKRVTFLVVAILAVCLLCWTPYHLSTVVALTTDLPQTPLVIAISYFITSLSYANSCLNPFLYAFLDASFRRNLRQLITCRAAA
Sequence of Sphingosine 1-phosphate receptor 1 (P21453 whole entry): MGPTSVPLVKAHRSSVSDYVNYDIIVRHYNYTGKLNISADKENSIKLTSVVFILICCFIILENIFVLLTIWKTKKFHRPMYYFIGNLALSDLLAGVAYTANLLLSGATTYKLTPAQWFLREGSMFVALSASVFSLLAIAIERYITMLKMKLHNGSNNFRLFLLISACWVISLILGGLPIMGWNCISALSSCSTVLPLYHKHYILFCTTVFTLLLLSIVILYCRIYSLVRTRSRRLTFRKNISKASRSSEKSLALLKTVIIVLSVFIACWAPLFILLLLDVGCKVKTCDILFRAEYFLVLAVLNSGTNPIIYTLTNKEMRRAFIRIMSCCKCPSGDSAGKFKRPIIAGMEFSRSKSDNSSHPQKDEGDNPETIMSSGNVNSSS

For the molecule `O=c1c(Oc2ccc3ccccc3c2)c(Cl)cnn1Cc1cccc2ccccc12`, the IC50 in assay [1] and in [2] was > 20 µM (inactive) in each case.
On to `O=[N+]([O-])c1cc(S(=O)(=O)C(F)(F)F)ccc1Sc1nc2ccccc2[nH]1`, for which the IC50 in assay [3] was > 64.6 µM (inactive); in assay [4] it was 0.77 µM (active); in [10], 1.29 µM (active); in assay [12], 34.3 µM (not active); in [13] it was 7.65 µM (active). Moreover, the EC50 is 7.22 µM (active) in assay [5]; 6.72 µM (active) in [7]; 11.9 µM (active) in [8]; 5.93 µM (active) in [11]; 0.774 µM (active) in assay [14]; > 150 µM (not active) in assay [15]. Also, the AC50 in assay [6] is 2.83 µM (active); in [9], 4.04 µM (active).
With `Clc1cc(I)cc(Cl)c1N=C1NCCN1`, the IC50 is 1.12 µM (active) in assay [16] and 0.843 µM (active) in [17].
